# Test results: ChEMBL document CHEMBL1130619, “Quaternary substituted PDE4 inhibitors I: the synthesis and in vitro evaluation of a novel series of oxindoles” (Bioorg Med Chem Lett, 1998)
# Key:
# Phosphodiesterase 4 [1] = biological target: T1, Phosphodiesterase 4 (Homo sapiens, UniProt P27815+Q08499+Q07343+Q08493); test: Inhibition of guinea pig macrophage Phosphodiesterase 4; format: protein assay, Cavia porcellus; conditions: target entry is the homologue from another species
# Phosphodiesterase 4 [2] = biological target: T1, Phosphodiesterase 4; test: Displacement of [3H]rolipram binding to guinea pig brain membrane; format: tissue-based, Cavia porcellus; conditions: target entry is the homologue from another species
IC50 (Phosphodiesterase 4 [1]),Ki (Phosphodiesterase 4 [2]),Structure (SMILES)
2000 nM,> 3700 nM,COc1ccc(C2(Cc3ccncc3)C(=O)N(Cc3ccccc3)c3ccccc32)cc1OC1CCCC1 (centres undefined)
600 nM,200 nM,COc1ccc(C2(Cc3ccncc3)C(=O)Nc3ccccc32)cc1OC1CCCC1 (centres undefined)
1000 nM,> 3700 nM,COc1ccc(C2(Cc3ccncc3)C(=O)N(Cc3ccncc3)c3ccccc32)cc1OC1CCCC1 (centres undefined)
2400 nM,> 3700 nM,COc1ccc(C2(Cc3ccncc3)C(=O)N(S(=O)(=O)c3ccc(C)cc3)c3ccccc32)cc1OC1CCCC1 (centres undefined)
400 nM,2600 nM,COc1ccc(C2(Cc3cccnc3)C(=O)Nc3ccccc32)cc1OC1CCCC1 (centres undefined)
700 nM,2800 nM,COc1ccc(C2(Cc3ccncc3)C(=O)N(C(=O)OC(C)(C)C)c3ccccc32)cc1OC1CCCC1 (centres undefined)
1200 nM,> 3700 nM,COc1ccc(C2(Cc3cc[n+]([O-])cc3)C(=O)Nc3ccccc32)cc1OC1CCCC1 (centres undefined)
700 nM,> 3700 nM,COc1ccc(C2(Cc3ccccn3)C(=O)Nc3ccccc32)cc1OC1CCCC1 (centres undefined)
6000 nM,> 3700 nM,COc1ccc(C2C(=O)Nc3ccccc32)cc1OC1CCCC1 (centres undefined)
1700 nM,2400 nM,COc1ccc(C2(Cc3ccncc3)C(=O)N(C(=O)N(C)C)c3ccccc32)cc1OC1CCCC1 (centres undefined)
1000 nM,> 3700 nM,COc1ccc(C2(Cc3ccccc3)C(=O)Nc3ccccc32)cc1OC1CCCC1 (centres undefined)
4.5 nM,60 nM,COc1ccc([C@H](Cc2ccncc2)c2ccccc2)cc1OC1CCCC1 [CDP840]
